Experimental data: ChEMBL document CHEMBL2073995, “Possible involvement of P-glycoprotein in renal excretion of pazufloxacin in rats” (Eur J Pharmacol, 2004)

Target: ATP-dependent translocase ABCB1 (Homo sapiens, UniProt P08183)
Test: TP_TRANSPORTER: cell accumulation in K562/ADR cells
Type: functional, cell-based

Chain of ATP-dependent translocase ABCB1 (P08183 whole entry): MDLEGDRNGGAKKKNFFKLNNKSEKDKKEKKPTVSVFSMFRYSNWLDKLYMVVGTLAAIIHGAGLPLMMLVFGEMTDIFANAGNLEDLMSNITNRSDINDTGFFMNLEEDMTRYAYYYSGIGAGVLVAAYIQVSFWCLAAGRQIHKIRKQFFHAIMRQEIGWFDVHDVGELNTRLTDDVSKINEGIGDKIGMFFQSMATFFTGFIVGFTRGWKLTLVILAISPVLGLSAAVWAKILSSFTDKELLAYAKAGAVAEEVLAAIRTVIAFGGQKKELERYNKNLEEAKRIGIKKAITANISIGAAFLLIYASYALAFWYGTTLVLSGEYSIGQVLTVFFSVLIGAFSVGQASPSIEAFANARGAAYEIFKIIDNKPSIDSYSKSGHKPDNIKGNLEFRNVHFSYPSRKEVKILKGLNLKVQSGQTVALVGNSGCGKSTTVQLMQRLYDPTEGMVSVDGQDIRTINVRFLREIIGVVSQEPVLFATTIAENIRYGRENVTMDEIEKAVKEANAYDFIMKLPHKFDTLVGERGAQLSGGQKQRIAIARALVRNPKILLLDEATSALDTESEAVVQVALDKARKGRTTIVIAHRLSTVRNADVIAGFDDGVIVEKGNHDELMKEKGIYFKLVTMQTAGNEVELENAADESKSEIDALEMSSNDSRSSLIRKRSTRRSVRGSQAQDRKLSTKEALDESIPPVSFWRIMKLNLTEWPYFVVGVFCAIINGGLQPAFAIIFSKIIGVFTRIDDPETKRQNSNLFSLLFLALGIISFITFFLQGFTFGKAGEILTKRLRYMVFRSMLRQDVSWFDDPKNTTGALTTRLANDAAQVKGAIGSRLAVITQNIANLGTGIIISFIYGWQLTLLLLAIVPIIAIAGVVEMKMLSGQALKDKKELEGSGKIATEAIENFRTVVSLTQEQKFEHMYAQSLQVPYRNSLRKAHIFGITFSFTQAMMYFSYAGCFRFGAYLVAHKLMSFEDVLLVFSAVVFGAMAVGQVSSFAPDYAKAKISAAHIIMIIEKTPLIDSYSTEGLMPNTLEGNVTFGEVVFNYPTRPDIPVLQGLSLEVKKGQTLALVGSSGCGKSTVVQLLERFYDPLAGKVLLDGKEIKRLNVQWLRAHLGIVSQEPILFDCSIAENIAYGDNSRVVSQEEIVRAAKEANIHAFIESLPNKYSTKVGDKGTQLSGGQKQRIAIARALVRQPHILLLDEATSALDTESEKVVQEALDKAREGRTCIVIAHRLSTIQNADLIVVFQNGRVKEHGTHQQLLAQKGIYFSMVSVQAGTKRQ

In the case of C[C@H]1COc2c(C3(N)CC3)c(F)cc3c(=O)c(C(=O)O)cn1c23 [PAZUFLOXACIN], the Activity was “substrate [+]”.
